The pIC50 is −log10 of the IC50, conventionally taken in molar units. For orientation: inhibition means the percentage by which the read-out fell short of the control. Low values mean little suppression, high ones strong suppression.

For data set [1], the target named is T1, Epidermal growth factor receptor (Homo sapiens, UniProt P00533). Briefly: Inhibition of EGFR after 50 mins by HTRF assay. (In general: Time-resolved FRET reads energy transfer from a long-lived donor to a nearby acceptor.)
Data set [2] addresses T1, Epidermal growth factor receptor. The conditions noted are these: at 10 µM.
For data set [3], the system named is A-431. The experiment in a line: Cytotoxicity against human A431 cells after 72 hrs by MTT assay. It counts as functional, cell-based. In general terms: Tetrazolium dyes change colour on reduction, which living cells bring about.
Data set [4] has as its system A-431. Briefly: Cytotoxicity against human A431 cells at 300 uM after 72 hrs by MTT assay. Format: functional. The conditions noted are these: A-431, 72 h.
Data set [5] deals with A-431. The experiment in a line: Cellular uptake in human A431 cells after 8 hrs by EPR spectroscopy. It counts as ADME, cell-based. The note with it: a-431, 8 h.

pIC50: −log10 of the molar value.

T1 sequence (P00533 whole entry): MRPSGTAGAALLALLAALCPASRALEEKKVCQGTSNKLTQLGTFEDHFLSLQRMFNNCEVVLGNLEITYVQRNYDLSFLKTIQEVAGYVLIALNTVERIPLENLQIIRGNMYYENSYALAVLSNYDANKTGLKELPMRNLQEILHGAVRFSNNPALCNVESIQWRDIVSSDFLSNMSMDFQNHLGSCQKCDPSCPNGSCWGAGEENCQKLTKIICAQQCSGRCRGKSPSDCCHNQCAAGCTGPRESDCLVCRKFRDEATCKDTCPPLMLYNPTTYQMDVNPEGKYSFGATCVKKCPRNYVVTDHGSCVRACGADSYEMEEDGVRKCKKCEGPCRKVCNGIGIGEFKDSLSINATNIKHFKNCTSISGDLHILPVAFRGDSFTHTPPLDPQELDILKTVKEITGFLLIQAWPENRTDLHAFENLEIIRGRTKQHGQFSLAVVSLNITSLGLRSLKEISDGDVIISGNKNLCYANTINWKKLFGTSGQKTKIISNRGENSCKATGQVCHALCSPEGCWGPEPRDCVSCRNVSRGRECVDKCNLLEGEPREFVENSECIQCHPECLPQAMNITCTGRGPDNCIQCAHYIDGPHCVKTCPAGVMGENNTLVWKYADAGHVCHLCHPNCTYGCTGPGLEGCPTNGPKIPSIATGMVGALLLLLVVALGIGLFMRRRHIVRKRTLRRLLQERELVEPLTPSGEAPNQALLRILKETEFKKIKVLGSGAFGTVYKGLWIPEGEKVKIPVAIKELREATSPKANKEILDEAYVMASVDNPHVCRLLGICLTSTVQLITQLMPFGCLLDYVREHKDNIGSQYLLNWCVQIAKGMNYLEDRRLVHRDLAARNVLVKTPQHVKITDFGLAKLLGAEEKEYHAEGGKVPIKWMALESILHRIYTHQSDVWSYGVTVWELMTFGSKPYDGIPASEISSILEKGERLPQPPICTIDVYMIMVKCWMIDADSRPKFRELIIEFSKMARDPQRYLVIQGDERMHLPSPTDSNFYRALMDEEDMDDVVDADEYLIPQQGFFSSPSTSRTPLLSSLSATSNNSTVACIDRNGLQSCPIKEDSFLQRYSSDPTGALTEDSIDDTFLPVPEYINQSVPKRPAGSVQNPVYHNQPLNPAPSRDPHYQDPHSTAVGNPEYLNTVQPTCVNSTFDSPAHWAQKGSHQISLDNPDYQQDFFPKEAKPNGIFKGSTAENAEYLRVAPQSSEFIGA

As to `Nc1ccc2ncnc(Nc3ccc(F)c(Cl)c3)c2c1`, the pIC50 in data set [1] was 7.54. This compound came in with an inhibition in data set [2] of 99.5%.

On to `COc1cc2ncc(C(=O)O)c(Nc3cccc(Cl)c3)c2cc1OC`, for which the pIC50 in data set [3] (Homo sapiens, A-431, 72 h) was 4.01.

Compound `Nc1ccc2ncnc(Nc3cccc(Cl)c3)c2c1` had a pIC50 in data set [3] (a-431) of 4.50. In data set [2], this compound came in with an inhibition of 98.9%.

In the case of `CC1(C)CC(C(=O)Nc2ccc3ncnc(Nc4cccc(Br)c4)c3c2)CC(C)(C)N1[O]`, the pIC50 in data set [1] was 7.51; in data set [3] (Homo sapiens, A-431, 72 h), 4.56. This compound had an inhibition in data set [2] of 99.4%.

Regarding `CC1(C)CC(C(=O)Nc2ccc3ncnc(Nc4cccc(Cl)c4)c3c2)CC(C)(C)N1[O]`, the pIC50 was 7.19 in data set [1] and 4.57 in data set [3] (Homo sapiens, A-431, 72 h). In data set [2], this compound registered an inhibition of 99.4%.

`Nc1ccc2ncnc(Nc3cccc(Br)c3)c2c1` showed a pIC50 in data set [3] (Homo sapiens, A-431, 72 h) of 4.46.

As to `COc1cc2ncc(C(=O)O)c(Nc3ccc(F)c(Cl)c3)c2cc1OC`, the pIC50 in data set [1] is 5.03; in data set [3] (Homo sapiens, A-431, 72 h), 4.05. The compound further yielded an inhibition in data set [2] of 66.5%.

`CC1(C)CCCC(C)(C)N1[O]`: the pIC50 in data set [3] (Homo sapiens, A-431, 72 h) was under 3.52. In addition, in data set [4], the inhibition at 300 µM was under 50%.

For the compound `COc1cc2ncc(C(=O)NC3CC(C)(C)N([O])C(C)(C)C3)c(Nc3ccc(F)c(Cl)c3)c2cc1OC`, the pIC50 in data set [1] was 6.37; in data set [3] (Homo sapiens, A-431, 72 h) it was 4.42. Moreover, the Drug uptake result in data set [5] is on record as “Active”. This compound gave an inhibition in data set [2] of 92.8%.

In the case of `COc1cc2ncc(C(=O)NC3CC(C)(C)N([O])C(C)(C)C3)c(Nc3cccc(Br)c3)c2cc1OC`, the pIC50 is 6.47 in data set [1] and 4.36 in data set [3] (Homo sapiens, A-431, 72 h). Besides, the inhibition in data set [2] was found to be 90.3%.

Regarding `COc1cc2ncc(C(=O)O)c(Nc3cccc(Br)c3)c2cc1OC`, the pIC50 was 5.06 in data set [1] and 4.03 in data set [3] (Homo sapiens, A-431, 72 h). Besides, in data set [2], the inhibition was 60.1%.

Regarding `CC1(C)CC(C(=O)Nc2ccc3ncnc(Nc4ccc(F)c(Cl)c4)c3c2)CC(C)(C)N1[O]`, the pIC50 in data set [1] is 7.82; in data set [3] (Homo sapiens, A-431, 72 h), 4.61. Also, in data set [5], the Drug uptake result is given as “Active”. Further, the inhibition in data set [2] worked out at 99.5%.

As for `COc1cc2ncc(C(=O)NC3CC(C)(C)N([O])C(C)(C)C3)c(Nc3cccc(Cl)c3)c2cc1OC`, the pIC50 is 6.21 in data set [1] and 4.34 in data set [3] (Homo sapiens, A-431, 72 h). This compound also showed an inhibition in data set [2] of 88.3%.

The record behind these values is ChEMBL document CHEMBL1944591, “Synthesis and biological evaluation of quinazoline and quinoline bearing 2,2,6,6-tetramethylpiperidine-N-oxyl as potential epidermal growth factor receptor(EGFR) tyrosine kinase inhibitors and EPR bio-probe agents” (Eur J Med Chem, 2012).
